# “And” between values parts separate entries of the source, which are not always exact repeats. Identical values can stand only once.
# Experiments:
# [1] = test system: DIGSA; test: Postemergence foliar-applied weed control, direct seeded rice, greenhouse (Example I); format: in vivo, Digitaria sanguinalis (L.) Scop.; settings: g ae/ha Compound A Acid+g ai/ha carfentrazone-ethyl: r11 4.38+0, r12 8.75+0, r13 17.5+0, r14 0+14, r15 4.38+14, r16 8.75+14, r17 17.5+14
# [2] = test system: ECHCG; test: as above; format: in vivo, Echinochloa crusgalli (L.) Beauv.
# [3] = test system: CYPES; test: as above; format: in vivo, Cyperus esculentus L.; settings: g ae/ha Compound A Acid+g ai/ha carfentrazone-ethyl: r27 4.38+0, r28 8.75+0, r29 0+7, r30 0+14, r31 4.38+7, r32 8.75+7, r33 4.38+14, r34 8.75+14
# [4] = test system: LEFCH; test: as above; format: in vivo, Leptochloa chinensis (L.) Nees
# [5] = test system: CYPIR; test: as above; format: in vivo, Cyperus iria L.; settings: g ae/ha Compound A Benzyl Ester+g ai/ha carfentrazone-ethyl: r11 8.75+0, r12 0+3.5, r13 0+7, r14 0+14, r15 8.75+3.5, r16 8.75+7, r17 8.75+14
# [6] = test system: ECHOR; test: In-water applied weed control, transplanted paddy rice, greenhouse (Example II); format: in vivo, Echinochloa oryzoides (Ard.) Fritsch
# [7] = test system: LEFCH; test: as above; format: in vivo, Leptochloa chinensis (L.) Nees; settings: g ae/ha Compound A Benzyl Ester+g ai/ha carfentrazone-ethyl: r11 8.75+0, r12 17.5+0, r13 35+0, r14 0+28, r15 8.75+28, r16 17.5+28, r17 35+28
# [8] = test system: IPOHE; test: Postemergence foliar-applied weed control, direct seeded rice, greenhouse (Example I); format: in vivo, Ipomoea hederacea Jacq.
# [9] = test system: BRAPP; test: as above; format: in vivo, Brachiaria platyphylla (Griseb.) Nash; settings: g ae/ha Compound A Acid+g ai/ha pyraclonil: r11 4.38+0, r12 0+33.75, r13 0+67.5, r14 0+135, r15 4.38+33.75, r16 4.38+67.5, r17 4.38+135
# [10] = test system: ISCRU; test: as above; format: in vivo, Ischaemum rugosum Salisb.; settings: g ae/ha Compound A Benzyl Ester+g ai/ha pyraclonil: r37 8+0, r38 16+0, r39 0+67.5, r40 0+135, r41 0+270, r42 8+67.5, r43 16+67.5, r44 8+135, r45 16+135, r46 8+270, r47 16+270
# [11] = test system: ECHCG; test: In-water applied weed control, transplanted paddy rice, greenhouse (Example II); format: in vivo, Echinochloa crus-galli (L.) P. Beauv.; settings: g ae/ha Compound A Acid+g ai/ha pyraclonil: r11 8.75+0, r12 17.5+0, r13 0+45, r14 8.75+45, r15 17.5+45
# [12] = test system: CYPRO; test: as above; format: in vivo, Cyperus rotundus L.; settings: g ae/ha Compound A Benzyl Ester+g ai/ha pyraclonil: r19 4.38+0, r20 8.75+0, r21 0+45, r22 0+90, r23 4.38+45, r24 8.75+45, r25 4.38+90, r26 8.75+90
Structure (SMILES),Visual Weed Control (%) - 21 DAA DIGSA Obs [1],"Visual Weed Control (%) - 21 DAA ECHCG Obs ([2]; g ae/ha Compound A Acid+g ai/ha carfentrazone-ethyl: r11 4.38+0, r12 8.75+0, r13 17.5+0, r14 0+14, r15 4.38+14, r16 8.75+14, r17 17.5+14)","Visual Weed Control (%) - 21 DAA ECHCG Obs ([2]; g ae/ha Compound A Benzyl Ester+g ai/ha carfentrazone-ethyl: r11 8.75+0, r12 0+3.5, r13 0+7, r14 0+14, r15 8.75+3.5, r16 8.75+7, r17 8.75+14)",Visual Weed Control (%) - 21 DAA CYPES Obs [3],"Visual Weed Control (%) - 19 DAA LEFCH Obs ([4]; g ae/ha Compound A Acid+g ai/ha carfentrazone-ethyl: r39 19.4+0, r40 0+28, r41 19.4+28)","Visual Weed Control (%) - 19 DAA LEFCH Obs ([4]; g ae/ha Compound A n-Butyl Ester+g ai/ha carfentrazone-ethyl: r11 16+0, r12 0+28, r13 16+28)",Visual Weed Control (%) - 21 DAA CYPIR Obs [5],"Visual Weed Control (%) - 19 DAA ECHOR Obs ([6]; g ae/ha Compound A Acid+g ai/ha carfentrazone-ethyl: r28 42.4+0, r29 0+215, r30 42.4+215)",Visual Weed Control (%) - 21 DAA LEFCH Obs [7],"Visual Weed Control (%) - 20 DAA ECHCG Obs ([2]; g ae/ha Compound A Acid+g ai/ha pyraclonil: r24 4.38+0, r25 8.75+0, r26 0+33.75, r27 0+67.5, r28 0+135, r29 4.38+33.75, r30 8.75+33.75, r31 4.38+67.5, r32 8.75+67.5, r33 4.38+135, r34 8.75+135)","Visual Weed Control (%) - 21 DAA ECHCG Obs ([2]; g ae/ha Compound A Acid+g ai/ha pyraclonil: r44 17.5+0, r45 35+0, r46 0+270, r47 17.5+270, r48 35+270)","Visual Weed Control (%) - 21 DAA IPOHE Obs ([8]; g ae/ha Compound A Acid+g ai/ha pyraclonil: r53 35+0, r54 0+270, r55 35+270)","Visual Weed Control (%) - 21 DAA IPOHE Obs ([8]; g ae/ha Compound A Benzyl Ester+g ai/ha pyraclonil: r27 17.5+0, r28 35+0, r29 0+270, r30 17.5+270, r31 35+270)",Visual Weed Control (%) - 20 DAA BRAPP Obs [9],Visual Weed Control (%) - 21 DAA ISCRU Obs [10],Visual Weed Control (%) - 20 DAA ECHCG Obs [11],"Visual Weed Control (%) - 20 DAA ECHOR Obs ([6]; g ae/ha Compound A Benzyl Ester+g ai/ha pyraclonil: r11 4.38+0, r12 8.75+0, r13 17.5+0, r14 0+45, r15 4.38+45, r16 8.75+45, r17 17.5+45)",Visual Weed Control (%) - 20 DAA CYPRO Obs [12]
"CCOC(=O)C(Cl)Cc1cc(-n2nc(C)n(C(F)F)c2=O)c(F)cc1Cl (stereo not drawn) [Carfentrazone-ethyl, ethyl α,2-dichloro-5-[4-(difluoromethyl)-4,5-dihydro-3-methyl-5-oxo-1H-1,2,4-triazol-1-yl]-4-fluorobenzenepropanoate, reference compound]",0%,10%,0% and 10%,0%,10%,10%,0%,65%,10%,,,,,,,,,
"C#CCN(C)c1c(C#N)cnn1-c1nn2c(c1Cl)CCCC2 [Pyraclonil, 1-(3-chloro-4,5,6,7-tetrahydropyrazolo[1,5-a]pyridin-2-yl)-5-(methyl-2-propynylamino)-1H-pyrazole-4-carbonitrile, reference compound]",,,,,,,,,,0%,0%,45%,45%,0%,0%,0%,40%,0%
